From patent publication US8753833B2, “Copolymer assay” (Momenta Pharmaceuticals, Inc., priority 2007, dated 2014)
Marks after values point to notes of the source that are not given here.

Experiments:
THP-1 cells [1] = assay: THP-1 copolymer assay: secretion of IFN-γ-regulated chemokines, cytokines, receptors and proteases, Searchlight multiplex analysis; type: cell-based, human; details: for I-TAC / IP-10 / MIG: IFN-γ 10 ng/ml, 22-24 hours, 12 samples
Protocol: THP-1 cells (ATCC, TIB-202) were received from the American Type Culture Collection (ATCC). […] Cells were grown in complete growth medium and incubated in a 37° C., 5% CO2 incubator.
Assay medium was prepared fresh the day of the assay. The assay medium consisted of 2 mM Glutamax I Supplement (Invitrogen, 35050-79) in X-VIVO 15 serum-free medium (Cambrex, 04-418Q). These reagents were filtered in a 0.2 micron cellulose acetate filter unit (Nalgene, 156-4020). After filtration, the bottle was covered with foil to protect the medium from light.
COPAXONE® (glatiramer acetate; Teva Pharmaceuticals) was stored in the manufacturer's syringe at 4° C. Samples were prepared at a 2× concentration in the 2×IFN-γ assay medium in sterile, siliconized microfuge tubes. Final concentrations from 0 μg/ml to 400 μg/ml were tested in the assay.
Human IFN-γ (R&D Systems, 285-IF-100) was reconstituted with sterile 0.2% bovine serum albumin (BSA) in phosphate-buffered saline (PBS) (Chemicon, 3225-80).
On the day prior to assay, THP-1 cells were seeded at 2×10^5 cells/ml (20 ml final volume). These cells were harvested by centrifugation at 400×g, 5 min, 18° C. Cells were washed once with assay medium (without IFN-γ) and resuspended in assay medium (without IFN-γ) and counted. THP-1 cells were resuspended at 5×10^5 cells/ml in assay medium (with 0, 1, 10, and 100 ng/ml final concentration of IFN-γ). […] Assay plates were incubated for 0 to 23 hours in a 37° C., 5% CO2 incubator.
Conditioned medium was harvested into non-sterile, siliconized tubes. Tubes were centrifuged at 400×g, 5 min, 4° C. The supernatants were transferred to new, siliconized tubes and flash frozen in liquid nitrogen. Frozen conditioned medium was stored at −80° C. until they were submitted for Searchlight multiplex cytokine analysis (Pierce Endogen, Woburn, Mass.).

THP-1 cells [2] = assay: as above; type: cell-based, human; details: IFN-γ 10 ng/ml, 22-24 hours, 12 samples
[3] = 50 μg/ml COPAXONE and 10 ng/ml IFN-γ, FIG. 1
[4] = 23 hours, GA 2 μg/ml, IFNγ 0 ng/ml
[5] = 23 hours, GA 2 μg/ml, IFNγ 10 ng/ml
[6] = 23 hours, GA 2 μg/ml, IFNγ 100 ng/ml
[7] = 23 hours, GA 2 μg/ml, IFNγ 1000 ng/ml
[8] = 23 hours, GA 10 μg/ml, IFNγ 0 ng/ml
[9] = 23 hours, GA 10 μg/ml, IFNγ 10 ng/ml
[10] = 23 hours, GA 10 μg/ml, IFNγ 100 ng/ml
[11] = 23 hours, GA 10 μg/ml, IFNγ 1000 ng/ml
[12] = IFNγ + 50 μg/ml I356 over IFNγ alone (10 ng/ml)

Fold induction over baseline by culture medium (THP-1 cells [1]; X-VIVO15 serum-free defined medium compared with FBS media): highest fold induction over baseline
Substance: glatiramer acetate [COPAXONE®]
I-TAC level, fold higher than baseline containing IFN-γ alone (THP-1 cells [1]; [3]): 412 fold | IP-10 level, fold higher than baseline containing IFN-γ alone (THP-1 cells [1]; [3]): 329 fold | MIG level, fold higher than baseline containing IFN-γ alone (THP-1 cells [1]; [3]): 573 fold | I-TAC induction, fold increase over the control (0) (THP-1 cells [1]; [4]): 1 fold | IP-10 induction, fold increase over the control (0) (THP-1 cells [1]; [4]): 0 fold | MIG induction, fold increase over the control (0) (THP-1 cells [1]; [4]): 1 fold | I-TAC induction, fold increase over the control (0) (THP-1 cells [1]; [5]): 10 fold | IP-10 induction, fold increase over the control (0) (THP-1 cells [1]; [5]): 72 fold | MIG induction, fold increase over the control (0) (THP-1 cells [1]; [5]): 21 fold | I-TAC induction, fold increase over the control (0) (THP-1 cells [1]; [6]): 46 fold | IP-10 induction, fold increase over the control (0) (THP-1 cells [1]; [6]): 49 fold | MIG induction, fold increase over the control (0) (THP-1 cells [1]; [6]): 39 fold | I-TAC induction, fold increase over the control (0) (THP-1 cells [1]; [7]): 23 fold | IP-10 induction, fold increase over the control (0) (THP-1 cells [1]; [7]): 13 fold | MIG induction, fold increase over the control (0) (THP-1 cells [1]; [7]): 23 fold | I-TAC induction, fold increase over the control (0) (THP-1 cells [1]; [8]): 4 fold | IP-10 induction, fold increase over the control (0) (THP-1 cells [1]; [8]): 0 fold | MIG induction, fold increase over the control (0) (THP-1 cells [1]; [8]): 1 fold | I-TAC induction, fold increase over the control (0) (THP-1 cells [1]; [9]): 51 fold | IP-10 induction, fold increase over the control (0) (THP-1 cells [1]; [9]): 233 fold | MIG induction, fold increase over the control (0) (THP-1 cells [1]; [9]): 284 fold | I-TAC induction, fold increase over the control (0) (THP-1 cells [1]; [10]): 113 fold | IP-10 induction, fold increase over the control (0) (THP-1 cells [1]; [10]): 67 fold | MIG induction, fold increase over the control (0) (THP-1 cells [1]; [10]): 333 fold | I-TAC induction, fold increase over the control (0) (THP-1 cells [1]; [11]): 49 fold | IP-10 induction, fold increase over the control (0) (THP-1 cells [1]; [11]): 14 fold | MIG induction, fold increase over the control (0) (THP-1 cells [1]; [11]): 160 fold | IFN-γ concentration at which fold-induction over baseline is maximal (THP-1 cells [1]; 23 hours, IP-10, I-TAC, MIG): 1 to 10 ng/mL | IP-10 production in the absence of IFN-γ (THP-1 cells [1]; COPAXONE alone, no IFN-γ): do not produce any significant amount | Earliest time at which lower levels of IP-10, I-TAC and MIG can be detected (THP-1 cells [1]; COPAXONE and the higher IFN-γ concentrations): 3 to 6 h | Effect on secretion of IP-10, I-TAC and MIG (THP-1 cells [1]; COPAXONE in combination with IFN-γ): striking, concentration-dependent effect | I309 secretion (THP-1 cells [1]; IFNγ 10 ng/ml + 50 μg/ml I356): 15.6* pg/ml | ICAM1 secretion (THP-1 cells [1]; IFNγ 10 ng/ml + 50 μg/ml I356): 279.9* pg/ml | IL1β secretion (THP-1 cells [1]; IFNγ 10 ng/ml + 50 μg/ml I356): 0.5* pg/ml | IL12p70 secretion (THP-1 cells [1]; IFNγ 10 ng/ml + 50 μg/ml I356): 8.9* pg/ml | IL-6 secretion (THP-1 cells [1]; IFNγ 10 ng/ml + 50 μg/ml I356): 3.8* pg/ml | IL-8 secretion (THP-1 cells [1]; IFNγ 10 ng/ml + 50 μg/ml I356): 217.1* pg/ml | IL-10 secretion (THP-1 cells [1]; IFNγ 10 ng/ml + 50 μg/ml I356): 0.7* pg/ml | IP10 secretion (THP-1 cells [1]; IFNγ 10 ng/ml + 50 μg/ml I356): 4060.5* pg/ml | MCP1 secretion (THP-1 cells [1]; IFNγ 10 ng/ml + 50 μg/ml I356): 688.2* pg/ml | MDC secretion (THP-1 cells [1]; IFNγ 10 ng/ml + 50 μg/ml I356): 23.6* pg/ml | MIP1α secretion (THP-1 cells [1]; IFNγ 10 ng/ml + 50 μg/ml I356): 73.9* pg/ml | MMP2 secretion (THP-1 cells [1]; IFNγ 10 ng/ml + 50 μg/ml I356): 915.9* pg/ml | MMP9 secretion (THP-1 cells [1]; IFNγ 10 ng/ml + 50 μg/ml I356): 8.9* pg/ml | RANTES secretion (THP-1 cells [1]; IFNγ 10 ng/ml + 50 μg/ml I356): 352.2* pg/ml | TARC secretion (THP-1 cells [1]; IFNγ 10 ng/ml + 50 μg/ml I356): 35.2* pg/ml | TIMP1 secretion (THP-1 cells [1]; IFNγ 10 ng/ml + 50 μg/ml I356): 6364.3* pg/ml | TNFR1 secretion (THP-1 cells [1]; IFNγ 10 ng/ml + 50 μg/ml I356): 35.8* pg/ml | TNFR2 secretion (THP-1 cells [1]; IFNγ 10 ng/ml + 50 μg/ml I356): 34.4* pg/ml | TNFα secretion (THP-1 cells [1]; IFNγ 10 ng/ml + 50 μg/ml I356): 61.3* pg/ml | IFNγ level in culture medium (THP-1 cells [1]; IFNγ 10 ng/ml + 50 μg/ml I356, 24 hr): 4575.9* pg/ml | I309 Fold-increase (THP-1 cells [1]; [12]): 9.7 fold | ICAM1 Fold-increase (THP-1 cells [1]; [12]): 6.0 fold | IFNγ Fold-increase (THP-1 cells [1]; [12]): 9.7 fold | IL1β Fold-increase (THP-1 cells [1]; [12]): 2.4 fold | IL12p70 Fold-increase (THP-1 cells [1]; [12]): 1.9 fold | IL-6 Fold-increase (THP-1 cells [1]; [12]): 19.0 fold | IL-8 Fold-increase (THP-1 cells [1]; [12]): 8.5 fold | IL-10 Fold-increase (THP-1 cells [1]; [12]): 2.0 fold | IP10 Fold-increase (THP-1 cells [1]; [12]): 226.3 fold | MCP1 Fold-increase (THP-1 cells [1]; [12]): 21.3 fold | MDC Fold-increase (THP-1 cells [1]; [12]): 10.6 fold | MIP1α Fold-increase (THP-1 cells [1]; [12]): 7.1 fold | MMP2 Fold-increase (THP-1 cells [1]; [12]): 5.8 fold | MMP9 Fold-increase (THP-1 cells [1]; [12]): 0.2 fold | RANTES Fold-increase (THP-1 cells [1]; [12]): 3.6 fold | TARC Fold-increase (THP-1 cells [1]; [12]): 3.0 fold | TIMP1 Fold-increase (THP-1 cells [1]; [12]): 1.7 fold | TNFR1 Fold-increase (THP-1 cells [1]; [12]): 5.2 fold | TNFR2 Fold-increase (THP-1 cells [1]; [12]): 3.1 fold | TNFα Fold-increase (THP-1 cells [1]; [12]): 1.8 fold | I-TAC (THP-1 cells [1]; [GA] 0.78 μg/ml): 16.5 pg/mL | IP-10 (THP-1 cells [1]; [GA] 0.78 μg/ml): 259.2 pg/mL | I-TAC (THP-1 cells [1]; [GA] 1.56 μg/ml): 42.1 pg/mL | IP-10 (THP-1 cells [1]; [GA] 1.56 μg/ml): 483.7 pg/mL | I-TAC (THP-1 cells [1]; [GA] 3.13 μg/ml): 82.6 pg/mL | IP-10 (THP-1 cells [1]; [GA] 3.13 μg/ml): 580.8 pg/mL | I-TAC (THP-1 cells [1]; [GA] 6.25 μg/ml): 105.9 pg/mL | IP-10 (THP-1 cells [1]; [GA] 6.25 μg/ml): 581.4 pg/mL | MIG (THP-1 cells [1]; [GA] 6.25 μg/ml): 2704.5 pg/mL | I-TAC (THP-1 cells [1]; [GA] 12.5 μg/ml): 179.2 pg/mL | MIG (THP-1 cells [1]; [GA] 12.5 μg/ml): 3608 pg/mL | IP-10 (THP-1 cells [1]; [GA] 25 μg/ml): 829 pg/mL | MIG (THP-1 cells [1]; [GA] 25 μg/ml): 4480.6 pg/mL | I-TAC (THP-1 cells [1]; [GA] 50 μg/ml): 532.6 pg/mL | IP-10 (THP-1 cells [1]; [GA] 50 μg/ml): 2150.8 pg/mL | MIG (THP-1 cells [1]; [GA] 50 μg/ml): 13771.2 pg/mL | I-TAC (THP-1 cells [1]; [GA] 100 μg/ml): 2444 pg/mL | IP-10 (THP-1 cells [1]; [GA] 100 μg/ml): 12865.1 pg/mL | MIG (THP-1 cells [1]; [GA] 100 μg/ml): 45353.3 pg/mL | I-TAC (THP-1 cells [1]; [GA] 200 μg/ml): 2091.2 pg/mL | MIG (THP-1 cells [1]; [GA] 200 μg/ml): 37897.5 pg/mL | I-TAC (THP-1 cells [1]; [GA] 400 μg/ml): 1560.5 pg/mL | IP-10 (THP-1 cells [1]; [GA] 400 μg/ml): 6111.3 pg/mL | IFN-γ levels with COPAXONE treatment (THP-1 cells [1]; measured at 24 hours): concentration-dependent increase | Secretion of IP-10, MIG, I-TAC and IFN-γ in all medium conditions (THP-1 cells [1]; various concentrations of FBS or X-VIVO15 serum-free medium): robust secretion | MIG (THP-1 cells [2]; [GA] 0.78 μg/ml): 149.7 pg/mL | MIG (THP-1 cells [2]; [GA] 1.56 μg/ml): 345.6 pg/mL | MIG (THP-1 cells [2]; [GA] 3.13 μg/ml): 933.6 pg/mL | IP-10 (THP-1 cells [2]; [GA] 12.5 μg/ml): 782.6 pg/mL | I-TAC (THP-1 cells [2]; [GA] 25 μg/ml): 247.1 pg/mL | IP-10 (THP-1 cells [2]; [GA] 200 μg/ml): 10899 pg/mL | MIG (THP-1 cells [2]; [GA] 400 μg/ml): 27574.5 pg/mL
